The values below come from US20160106439A1, “PNEUMATIC TOURNIQUET” (BIONUMERIK PHARMACEUTICALS, INC., priority 2013, published 2016).

Several values for one entry are separate records, joined by “and”; a condition that tells them apart may be missing. Equal entries are not always repeated. Entries after “also recorded” stand apart in the source; their conditions may differ. Where two headings read alike, the source gives them in different places. Where only a bound is given, the exact number is not on record here.

Data set [1] addresses T1, Mesenchymal Epithelial Transition (MET) Factor Kinase (Homo sapiens, UniProt P08581).
T1 construct: the kinase domain of MET (residues 956-end) was used in these experiments; purchased SignalChem M52-18G-10; host or cells: Sf9 insect cells
Put plainly: MET kinase inhibition (summary Table 27). In kind it is biochemical. The conditions noted are these: modification of non-active site cysteine(s).

Data set [2] concerns the target ROS1 kinase (Homo sapiens, UniProt P08922). To be noted: for effect on crizotinib inhibition of ROS1 kinase activity: ATP and polyGT. Here is the method:
The substrate that was phosphorylated by the kinase, polyglutamate-tyrosine (PolyGT), was purchased from Sigma (P0275, lot 120M5007V).
All other reagents were purchased from Sigma Aldrich. A Tecan Ultra microplate reader with XFluor4 software (Tecan, V4.51) and RdrOle software (Tecan, V4.50) were used in this study.
ROS1 kinase phosphorylated the polyGT substrate using the ATP cofactor and produced ADP. […] The reactions, in microtubes, were incubated for 60 minutes at 25° C. in a water bath. Following this 60 minute incubation, 10 μL aliquots were transferred to microplates and the kinase activity was evaluated using the Promega ADP-glo system that monitored, in an endpoint assay, ADP produced when ROS1 kinase phosphorylated the PolyGT substrate.
It should be noted that numerous controls were tested and included the assay components indicated in the columns of Table 10 below (where + indicates the component was included and an empty space indicates it was not included).
The Kinase Assays, as described in Section II above, were run in triplicate or quadruplicate in microplates. Following these assays, the ADP-glo detection system (Promega) was used to determine how much ADP had been produced.
For 10 μL volume assays, to each microplate well containing 10 μL of kinase reaction was added ADP-glo reagent (10 μL), the microplates were spun in a table top centrifuge (1000 rpm (123×g) for 1 minute) to ensure that no reagent remained on the walls of the individual wells, and then agitated for 1 minute to ensure optimal mixing. The microplates were incubated at 25° C. on a heat block for 40 minutes. Kinase detection reagent (20 μL) was then added and, as above, centrifugation and agitation was repeated; with the microplates being allowed to incubate at 25° C.±1° C. on a heat block for 40 minutes. Following the incubation of the kinase detection reagent, the microplates were read on a Tecan Ultra microplate reader. The Tecan Ultra contained a built-in plate definition file for the whole area 96-well, white Corning microplates; however a microplate definition file for the half area 96-well Corning plates was created using the RdrOle component of the Tecan Ultra software.
Therefore, each mole of PolyGT polymer of 20,000 g/mole would contain approximately 28 moles of the glu-glu-glu-glu-tyr “subpolymer.”
Typically, a 10 μL assay volume would contain 2 μg of the polyGT substrate. Assuming the lower polymer mass of 20,000 g/mol mass, this translates to approximately 10 μM polyGT per assay and […] glu-glu-glu-glu-tyr “subpolymer” per assay.
Data from ROS1 kinase assays run on the Tecan Ultra microplate spectrophotometer were collected in Microsoft Excel. Error calculations and graphical representations were performed in Microsoft Office Excel (Microsoft Corporation, Redmond, Wash., USA). Determination of IC25, IC50 and IC75 values were accomplished using Origin Lab software (OriginLab Corporation, Northampton, Mass., USA).

Data set [3] addresses T2, human glutaredoxin (Grx1) (Homo sapiens, UniProt P35754).
T2 construct: 6xHis (TEV-cleavable) (N, cleaved yes); made in house; host or cells: E. coli BL21 (RIPL)
The data set is described as follows: Mass Spectroscopy of Grx-Tavocept reaction. The format is binding. The conditions noted are these: 40 mM Tavocept, 4° C. overnight.

Data set [4] concerns the target IGF1R (Homo sapiens, UniProt P08069). The data set is described as follows: IGF1R kinase assay (ADP-glo) after pre-incubation. The format is biochemical. The protocol: Prior to initiating the IGF1R kinase assays, IGF1R was incubated with Tavocept-IGF1R kinase phosphorylated the IGF1Rtide substrate using the ATP cofactor and produced ADP. The assays in half area 96-well microtiter plates were 10 μL in volume and contained IGF1R (4 ng total or 0.4 ng/μL), ATP (100 μM), IGF1Rtide substrate ([…]), and the concentrations of the various test articles as indicated. Additionally, kinase assay buffer was added to achieve a final reaction volume of 10 μL per assay. IGF1R kinase reactions were incubated for 60 minutes at 25° C. in a water bath. Following this 60 minute incubation, reactions were transferred to microplates and the kinase activity was evaluated using the ADP-glo system from Promega (this system monitors ADP produced when IGF1R phosphorylates the IGF1Rtide substrate).
(In general: ADP-Glo first removes unused ATP, then detects ADP through luciferase.)

For data set [5] the following is noted: cited from earlier work.
In data set [6] the target is T2, human glutaredoxin (Grx1). The data set is described as follows: X-ray crystallography of Grx1 with Tavocept-derived mesna adducts. In kind it is binding. The conditions noted are these: 40 mM Tavocept. From the text:
Diffraction data were collected at the Advanced Light Source (ALS) (Berkeley, Calif.). […] Data was processed using the program package MosFlm as part of the ccp4 program package.
Data was indexed, integrated, scaled and merged using the program Mosflm. […] The solution was consistent with one molecule in the crystal asymmetric unit. […] The structure solution is supported by contiguous electron density for the entire chain trace of each molecule, landmark side chain density features matching the amino acid sequence including cysteines, absence of phi-psi violations and final R/Rfree values in the normal range. […] Residues Gln39 and Glu55 have missing side-chain atoms in the final structures (side chain atoms CD, CG, OE1, NE2 and CD, OE1, OE2, respectively).

Chain of ROS1 kinase (P08922 1883-2347): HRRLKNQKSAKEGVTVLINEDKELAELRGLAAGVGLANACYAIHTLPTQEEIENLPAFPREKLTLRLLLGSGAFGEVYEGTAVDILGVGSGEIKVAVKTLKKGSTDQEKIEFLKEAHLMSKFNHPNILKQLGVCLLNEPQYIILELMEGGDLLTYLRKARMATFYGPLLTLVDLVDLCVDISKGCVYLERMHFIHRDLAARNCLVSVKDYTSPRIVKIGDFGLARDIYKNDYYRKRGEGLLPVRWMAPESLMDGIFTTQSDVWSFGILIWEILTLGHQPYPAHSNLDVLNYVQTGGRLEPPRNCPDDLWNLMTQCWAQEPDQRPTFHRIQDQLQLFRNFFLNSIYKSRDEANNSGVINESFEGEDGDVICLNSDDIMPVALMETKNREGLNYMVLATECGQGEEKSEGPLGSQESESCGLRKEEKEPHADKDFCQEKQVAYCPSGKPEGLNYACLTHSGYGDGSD
T2 sequence (P35754 whole entry): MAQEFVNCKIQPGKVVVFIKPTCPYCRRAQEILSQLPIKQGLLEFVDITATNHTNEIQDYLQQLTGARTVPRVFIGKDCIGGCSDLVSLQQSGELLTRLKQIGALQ
Chain of IGF1R (P08069 31-1367): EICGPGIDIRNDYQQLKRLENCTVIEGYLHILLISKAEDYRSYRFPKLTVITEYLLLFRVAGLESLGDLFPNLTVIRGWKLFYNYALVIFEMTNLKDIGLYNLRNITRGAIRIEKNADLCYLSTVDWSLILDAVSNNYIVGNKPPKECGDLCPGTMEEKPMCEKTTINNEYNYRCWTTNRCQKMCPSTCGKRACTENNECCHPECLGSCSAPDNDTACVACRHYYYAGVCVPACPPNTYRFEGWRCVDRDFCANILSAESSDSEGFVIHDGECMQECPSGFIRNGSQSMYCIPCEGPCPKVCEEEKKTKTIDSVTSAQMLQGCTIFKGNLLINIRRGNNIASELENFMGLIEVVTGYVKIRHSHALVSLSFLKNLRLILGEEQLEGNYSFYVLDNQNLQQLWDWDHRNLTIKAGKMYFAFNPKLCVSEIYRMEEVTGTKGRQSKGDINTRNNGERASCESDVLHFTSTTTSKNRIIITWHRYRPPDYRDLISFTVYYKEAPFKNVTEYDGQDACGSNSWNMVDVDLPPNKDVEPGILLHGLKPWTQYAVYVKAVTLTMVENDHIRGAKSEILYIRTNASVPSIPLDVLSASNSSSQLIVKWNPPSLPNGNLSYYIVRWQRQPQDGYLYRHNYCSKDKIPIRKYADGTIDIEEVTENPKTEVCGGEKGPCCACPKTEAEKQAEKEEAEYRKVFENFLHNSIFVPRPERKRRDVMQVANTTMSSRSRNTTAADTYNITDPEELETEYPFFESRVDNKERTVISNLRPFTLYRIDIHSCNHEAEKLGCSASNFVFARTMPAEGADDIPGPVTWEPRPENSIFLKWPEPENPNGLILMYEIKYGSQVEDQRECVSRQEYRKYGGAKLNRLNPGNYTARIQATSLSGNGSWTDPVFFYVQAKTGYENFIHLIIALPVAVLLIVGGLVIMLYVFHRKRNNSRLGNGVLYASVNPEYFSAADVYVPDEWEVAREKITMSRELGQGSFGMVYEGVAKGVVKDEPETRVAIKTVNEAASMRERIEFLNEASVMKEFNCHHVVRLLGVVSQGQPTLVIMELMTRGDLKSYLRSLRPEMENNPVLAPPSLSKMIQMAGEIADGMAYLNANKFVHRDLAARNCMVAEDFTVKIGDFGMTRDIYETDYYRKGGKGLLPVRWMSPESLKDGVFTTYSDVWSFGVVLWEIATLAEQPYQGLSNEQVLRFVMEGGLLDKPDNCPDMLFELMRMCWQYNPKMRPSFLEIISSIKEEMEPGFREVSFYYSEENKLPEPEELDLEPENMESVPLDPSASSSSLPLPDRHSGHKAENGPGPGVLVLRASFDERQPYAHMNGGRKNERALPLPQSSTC
T1 sequence (P08581 956-1390 limits assumed): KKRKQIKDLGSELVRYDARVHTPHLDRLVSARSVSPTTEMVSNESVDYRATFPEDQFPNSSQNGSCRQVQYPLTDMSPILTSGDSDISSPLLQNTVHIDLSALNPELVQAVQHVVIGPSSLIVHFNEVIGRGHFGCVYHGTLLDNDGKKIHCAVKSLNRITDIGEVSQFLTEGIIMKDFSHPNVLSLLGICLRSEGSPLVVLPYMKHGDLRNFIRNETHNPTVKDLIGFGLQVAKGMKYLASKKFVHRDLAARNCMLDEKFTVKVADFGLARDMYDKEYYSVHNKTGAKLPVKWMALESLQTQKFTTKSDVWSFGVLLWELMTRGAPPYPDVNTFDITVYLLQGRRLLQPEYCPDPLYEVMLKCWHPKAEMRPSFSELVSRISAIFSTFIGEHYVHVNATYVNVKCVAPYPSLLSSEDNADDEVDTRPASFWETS

A word on the Cmax: it is the peak of the concentration-time curve. In the case of `O=S(=O)([O-])CCSSCCS(=O)(=O)[O-].[Na+].[Na+]` [Tavocept, disodium 2,2′-dithio-bis-ethane sulfonate], the “Effect on MET” value in data set [1] is given as “resulting in enzyme inhibition (MET)”. Also, the “loss of ROS1 kinase activity” value in data set [2] (5 mM Tavocept incubated with ROS1 for 24 hours prior to ATP and polyGT, 100 μM ATP) is 15%; in data set [2] (10 mM Tavocept incubated with ROS1 for 3 hours prior to ATP and polyGT, 100 μM ATP), 16%; in data set [2] (10 mM Tavocept incubated with ROS1 for 24 hours prior to ATP and polyGT, 100 μM ATP), 31%; in data set [2] (20 mM Tavocept incubated with ROS1 for 3 hours prior to ATP and polyGT, 100 μM ATP) it was 26%; in data set [2] (20 mM Tavocept incubated with ROS1 for 24 hours prior to ATP and polyGT, 100 μM ATP), 48%. The “effect on ROS1 kinase activity” value in data set [2] (Tavocept (2.5-20 mM) added simultaneously with ATP and polyGT) is on record as “did not have a notable effect; also recorded: no discernible”. Moreover, the “effect on crizotinib inhibition of ROS1 kinase activity” value in data set [2] (Tavocept (2.5 to 20 mM) incubated with ROS1 for 3 or 24 hours prior to crizotinib) is recorded as “additive manner”; in data set [2] (Tavocept (2.5 to 20 mM) incubated with ROS1 for 3 or 24 hours prior to crizotinib, listed as BNP7787), “additive effect”; in data set [2] (Tavocept added simultaneously with crizotinib, 100 μM ATP) it was “did not affect; also recorded: no discernible”. In addition, the “Tavocept-derived mesna adducts per molecule of Grx” value in data set [3] was “one to two”. Also, the “loss of IGF1R kinase activity” value is recorded as “approximately 33%” in data set [4] (20 mM Tavocept pre-incubated with IGF1R for 24 hours, 100 μM ATP); at most 10% in data set [4] (other concentrations and pre-incubation times). In addition, the Tavocept in plasma in data set [5] (41 g/m^2 Tavocept) was around 14 mM. Besides, the “concentrations achieved in the clinic” value in data set [5] (as high as) was at most 18000 µM. Also, the “plasma levels pharmacologically achievable” value in data set [5] (doses of 18.4 g/m^2 and higher) is recorded as at least 8 mM. For the same compound, the pharmacologically achievable concentrations in data set [5] (in vivo) is reported as 6-10 mM. Also, the “plasma concentrations achieved in clinical trials” value in data set [5] (in vivo) is 10000 µM. In addition, the Cmax is 10000 µM in data set [5] (read-out: Cmax values in plasma, typical, doses as high as 41 g/m^2); ≥ 10000 µM and 10000 µM in data set [5] (read-out: Cmax values in plasma, dose of 18.4 g/m^2); 10000 µM in data set [5] (read-out: typical Cmax values, administered at 18 g/m^2). Also, the “Tavocept-derived mesna adduct sites on Grx” value in data set [6] was “observed on Cys7 and Cys82”.
